Our source for the IC50 values is patent publication US20230124361A1, “SMALL MOLECULE STING ANTAGONISTS” (CURADEV PHARMA PVT. LTD., priority 2020, published 2023).

pIC50: −log10 of the molar value.

The target in this assay is T1, STING (Homo sapiens, UniProt Q86WV6, G230A/H232R/R293Q/R71H).
T1 construct: host or cells: THP1-Dual cells (human THP-1 monocyte line with Lucia/SEAP reporters)
T1 sequence (Q86WV6 whole entry R71H/G230A/H232R/R293Q): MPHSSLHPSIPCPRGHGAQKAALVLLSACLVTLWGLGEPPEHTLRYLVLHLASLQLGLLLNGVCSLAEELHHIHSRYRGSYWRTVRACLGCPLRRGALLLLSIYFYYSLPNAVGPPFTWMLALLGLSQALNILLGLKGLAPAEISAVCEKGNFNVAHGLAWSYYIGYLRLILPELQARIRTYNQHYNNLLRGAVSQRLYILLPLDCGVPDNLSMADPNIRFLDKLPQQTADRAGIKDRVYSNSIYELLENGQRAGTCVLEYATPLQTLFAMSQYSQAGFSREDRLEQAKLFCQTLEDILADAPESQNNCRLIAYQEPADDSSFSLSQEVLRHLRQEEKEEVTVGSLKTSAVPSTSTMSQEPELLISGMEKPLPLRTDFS
Kind of assay: Reporter gene expression assay in THP1-Dual cells (IRF pathway Lucia luciferase, 2',3'-cGAMP stimulation). Format: cell-based. Conditions: 10 min preincubation, 5 μM 2',3'-cGAMP, 20 hr, IRF reporter QUANTI-Luc, read-out: THP-1 (HAQ) Activity. On the procedure:
Reporter Gene Expression Assay in THP-1 Cells
THP1-Dual™ cells (Invivogen) were derived from the human THP-1 monocyte cell line by stable integration of two inducible reporter constructs. As a result, THP1-Dual™ cells allow the simultaneous study of the IRF pathway, by assessing the activity of a secreted luciferase (Lucia) and the NF-κB pathway, by monitoring the activity of secreted SEAP. 5×10^4 THP1-Dual™ cells were seeded in 384-well plates in growth medium and preincubated with novel compounds for 10 minutes followed by stimulation with 5 μM 2′,3′-cGAMP. After 20 hr of stimulation the supernatant was removed and the IRF pathway reporter protein was readily measured in the cell culture supernatant using QUANTI-Luc™ (Invivogen), a luciferase detection reagent on a Spectramax i3X luminometer.
In the tables below, IC50 value ranges for exemplary compounds are given. The IC50 ranges are indicated as “A” for values less than or equal to 1 μM, “B” for values greater than 1 μM and less than or equal to 10 μM, and “C” for values greater than 10 μM.
(In general: In a reporter assay the amount or activity of a reporter protein is the signal.)
Regarding `O=C(Nc1ccc2c(c1)OCC(=O)N2Cc1ccccc1)NC1CCC(c2ccccc2)CC1` (mixture of isomers) [Example 137, 1-(4-benzyl-3-oxo-3,4-dihydro-2H-benzo[b][1, 4]oxazin-7-yl)-3-(4-phenyl-cyclohexyl)urea], the pIC50 was 5.00 to 6.00. The same measure for `O=C(Nc1ccc2c(c1)N(Cc1ccccc1)C(=O)CS2)Nc1ccc2cc[nH]c2c1` [Example 1, 1-(4-Benzyl-3-oxo-3,4-dihydro-2H-benzo[b][1,4]thiazin-6-yl)-3-(1H-indol-6-yl)urea]: 5.00 to 6.00; for `O=C(Nc1ccccc1)Nc1ccc2c(c1)N(Cc1ccccc1)C(=O)CS2` [Example 2, 1-(4-benzyl-3-oxo-3,4-dihydro-2H-benzo[b][1, 4]thiazin-6-yl)-3-phenylurea]: 5.00 to 6.00. The same measure for `O=C(Nc1ccc(F)cc1)Nc1ccc2c(c1)N(Cc1ccccc1)C(=O)CS2` [Example 3, 1-(4-benzyl-3-oxo-3,4-dihydro-2H-benzo[b][i, 4]thiazin-6-yl)-3-(4-fluorophenyl) urea]: 5.00 to 6.00. The same measure for `O=C(Nc1cccnc1)Nc1ccc2c(c1)N(Cc1ccccc1)C(=O)CS2` [Example 4, 1-(4-benzyl-3-oxo-3,4-dihydro-2H-benzo[b][1, 4]thiazin-6-yl)-3-(pyridin-3-yl)urea]: 5.00 to 6.00; for `O=C(Nc1ccncc1)Nc1ccc2c(c1)N(Cc1ccccc1)C(=O)CS2` [Example 6, 1-(4-benzyl-3-oxo-3,4-dihydro-2H-benzo[b][1, 4]thiazin-6-yl)-3-(pyridin-4-yl)urea]: 5.00 to 6.00. `O=C(Nc1ccc2c(c1)N(Cc1ccccc1)C(=O)CS2)Nc1ccc2[nH]ccc2c1` [Example 9, 1-(4-benzyl-3-oxo-3,4-dihydro-2H-benzo[b][1, 4]thiazin-6-yl)-3-(1H-indol-5-yl)urea]: the pIC50 was 5.00 to 6.00.

With `N#Cc1ccc(CNC(=O)Nc2ccc3c(c2)N(Cc2ccccc2)C(=O)CS3)cc1` [Example 12, 1-(4-benzyl-3-oxo-3,4-dihydro-2H-benzo[b][1, 4]thiazin-6-yl)-3-(4-cyanobenzyl) urea], the pIC50 was below 5.00. With `O=C(Nc1ccc(F)cc1)Nc1ccc2c(c1)N(Cc1cccnc1)C(=O)CS2` [Example 16, l-(4-fluorophenyl)-3-(3-oxo-4-(pyridin-3-ylmethyl)-3,4-dihydro-2H-benzo[b] [1,4]thiazin-6-yl)urea] the figure was below 5.00. `O=C(Nc1ccc(F)cc1)Nc1ccc2c(c1)N(Cc1ccncc1)C(=O)CS2` [Example 17, l-(4-fluorophenyl)-3-(3-oxo-4-(pyridin-4-ylmethyl)-3,4-dihydro-2H-benzo[b][1, 4]thiazin-6-yl)urea]: the pIC50 was below 5.00.

In the case of `O=C(Nc1ccc2c(c1)N(Cc1ccccc1)C(=O)CS2)Nc1c[nH]c2ccccc12` [Example 18, 1-(4-benzyl-3-oxo-3,4-dihydro-2H-benzo[b][1, 4]thiazin-6-yl)-3-(1H-indol-3-yl)urea], the pIC50 was at least 6.00. On to `O=C(Nc1ccc2c(c1)N(Cc1ccccc1)C(=O)CS2)Nc1cccc2cc[nH]c12` [Example 19, 1-(4-benzyl-3-oxo-3,4-dihydro-2H-benzo[b][1, 4]thiazin-6-yl)-3-(1H-indol-7-yl)urea], for which the pIC50 was 5.00 to 6.00. With `O=C(Nc1ccc2c(c1)OCCO2)Nc1ccc2c(c1)N(Cc1ccccc1)C(=O)CS2` [Example 23, 1-(4-benzyl-3-oxo-3,4-dihydro-2H-benzo[b] [1,4]thiazin-6-yl)-3-(2,3-dihydrobenzo [b][1,4]dioxin-6-yl)urea] the figure was 5.00 to 6.00. With `O=C(Nc1ccc2c(c1)N(Cc1noc3ccccc13)C(=O)CS2)Nc1ccc2cc[nH]c2c1` [Example 24, 1-(4-(benzo[d]isoxazol-3-ylmethyl)-3-oxo-3,4-dihydro-2H-benzo [b][1,4]thiazin-6-yl)-3-(1H-indol-6-yl)urea] the figure was 5.00 to 6.00; with `Nc1cccc(NC(=O)Nc2ccc3c(c2)N(Cc2ccccc2)C(=O)CS3)c1` [Example 25, 1-(3-aminophenyl)-3-(4-benzyl-3-oxo-3,4-dihydro-2H-benzo [b][1,4]thiazin-6-yl)urea], 5.00 to 6.00. `O=C(Nc1ccc(F)cc1)Nc1ccc2c(c1)N(Cc1cn3ccccc3n1)C(=O)CS2` [Example 26, 1-(4-fluorophenyl)-3-(4-(imidazo [1,2-a]pyridin-2-ylmethyl)-3-oxo-3,4-dihydro-2H-benzo[b][1, 4]thiazin-6-yl)urea]: the pIC50 was 5.00 to 6.00. The same measure for `Cn1ccc2ccc(NC(=O)Nc3ccc4c(c3)N(Cc3ccccc3)C(=O)CS4)cc21` [Example 27, 1-(4-benzyl-3-oxo-3,4-dihydro-2H-benzo[b] [1,4]thiazin-6-yl)-3-(1-methyl-1H-indol-6-yl)urea]: below 5.00; for `O=C(Nc1ccc2c(c1)N(Cc1ccccc1)C(=O)CS2)Nc1ccc2cn[nH]c2c1` [Example 28, 1-(4-benzyl-3-oxo-3,4-dihydro-2H-benzo[b][1, 4]thiazin-6-yl)-3-(1H-indazol-6-yl)urea]: 5.00 to 6.00; for `O=C1CCc2ccc(NC(=O)Nc3ccc4c(c3)N(Cc3ccccc3)C(=O)CS4)cc2N1` [Example 29, 1-(4-benzyl-3-oxo-3,4-dihydro-2H-benzo[b][1, 4]thiazin-6-yl)-3-(2-oxo-1,2,3,4-tetrahydro-quinolin-7-yl)urea]: 5.00 to 6.00.

Turning to `O=C(Nc1ccc2c(c1)N(Cc1ccccc1)C(=O)CS2)Nc1ccc2nc[nH]c2c1` [Example 30, 1-(1H-benzo[d]imidazol-6-yl)-3-(4-benzyl-3-oxo-3,4-dihydro-2H-benzo[b][1, 4]thiazin-6-yl)urea], the pIC50 was 5.00 to 6.00. `CN(C(=O)Nc1ccc2cc[nH]c2c1)c1ccc2c(c1)N(Cc1ccccc1)C(=O)CS2` [Example 31, 1-(4-benzyl-3-oxo-3,4-dihydro-2H-benzo[b][1, 4]thiazin-6-yl)-3-(1H-indol-6-yl)-1-methylurea]: the pIC50 is 5.00 to 6.00. With `CC1Sc2ccc(NC(=O)Nc3ccccc3)cc2N(Cc2ccccc2)C1=O` (stereo not drawn) [Example 32, 1-(4-benzyl-2-methyl-3-oxo-3,4-dihydro-2H-benzo[b][1, 4]thiazin-6-yl)-3-phenylurea] the figure was 5.00 to 6.00; with `NC(=O)c1ccc(NC(=O)Nc2ccc3c(c2)N(Cc2ccccc2)C(=O)CS3)cc1` [Example 33, 4-(3-(4-benzyl-3-oxo-3,4-dihydro-2H-benzo[b][1, 4]thiazin-6-yl)ureido) benzamide], 5.00 to 6.00; with `C[C@H]1c2ccc(NC(=O)Nc3ccc(F)cc3)cc2N(Cc2ccccc2)C(=O)N1C` [Example 38, (S)-1-(1-benzyl-3,4-dimethyl-2-oxo-1,2,3,4-tetrahydro-quinazolin-7-yl)-3-(4-fluorophenyl)urea], below 5.00. With `CN1Cc2ccc(NC(=O)Nc3ccc(F)cc3)cc2N(Cc2ccccc2)C1=O` [Example 39, 1-(1-Benzyl-3-methyl-2-oxo-1,2,3,4-tetrahydroquinazolin-7-yl)-3-(4-fluorophenyl)urea] the figure was 5.00 to 6.00. The same measure for `CN1Cc2ccc(NC(=O)Nc3ccc4cc[nH]c4c3)cc2N(Cc2ccccc2)C1=O` [Example 40]: 5.00 to 6.00; for `O=C1CSc2ccc(OCCc3ccc(F)cc3)cc2N1Cc1c(F)cccc1Cl` [Example 41, 4-(2-Chloro-6-fluorobenzyl)-6-(4-fluorophenethoxy)-2H-benzo[b][1,4]thiazin-3(4H)-one]: 5.00 to 6.00; for `O=C1CSc2ccc(COCc3ccc(F)cc3)cc2N1Cc1c(F)cccc1Cl` [Example 42]: 5.00 to 6.00. Consider `O=C1CSc2ccc(-c3ncc(-c4ccccc4)[nH]3)cc2N1Cc1c(F)cccc1Cl` [Example 43, 4-(2-Chloro-6-fluorobenzyl)-6-(t-phenyl-1H-imidazol-2-yl)-2H-benzo[b][1,4]thiazin-3(4H)-one], for which the pIC50 was 5.00 to 6.00.

With `O=C1CSc2ccc(-c3n[nH]c(-c4ccccc4)n3)cc2N1Cc1c(F)cccc1Cl` [Example 44, 4-(2-Chloro-6-fluorobenzyl)-6-(5-phenyl-1H-1,2,4-triazol-3-yl)-2H-benzo[b][1,4]thiazin-3(4H)-one], the pIC50 was 5.00 to 6.00. With `O=C1CSc2ccc(-c3nnc(Cc4ccccc4)[nH]3)cc2N1Cc1c(F)cccc1Cl` [Example 45] the figure was 5.00 to 6.00; with `O=C1CSc2ccc(-c3nc(-c4ccccc4)co3)cc2N1Cc1c(F)cccc1Cl` [Example 46, 4-(2-Chloro-6-fluorobenzyl)-6-(4-phenyloxazol-2-yl)-2H-benzo[b][1,4]thiazin-3(4H)-one], below 5.00. With `O=C(Cc1ccc2cc[nH]c2c1)Nc1ccc2c(c1)N(Cc1ccccc1)C(=O)CS2` [Example 47, N-(4-Benzyl-3-oxo-3,4-dihydro-2H-benzo[b][1,4]thiazin-6-yl)-2-(1H-indol-6-yl)acetamide] the figure was 5.00 to 6.00; with `O=C(Cc1ccco1)Nc1ccc2c(c1)N(Cc1ccccc1)C(=O)CS2` [Example 48, N-(4-benzyl-3-oxo-3,4-dihydro-2H-benzo[b][1,4]thiazin-6-yl)-2-(furan-2-yl)acetamide], below 5.00. The same measure for `O=C(c1ccccc1)N1CCSc2ccc(S(=O)(=O)NCc3ccco3)cc21` [Example 49, 4-benzoyl-N-(furan-2-ylmethyl)-3,4-dihydro-2H-benzo[b][1,4]thiazine-6-sulfonamide]: below 5.00; for `O=C(Nc1ccc2c(c1)N(Cc1ccccc1)CCS2)Nc1ccc2cc[nH]c2c1` [Example 50, 1-(4-Benzyl-3,4-dihydro-2H-benzo[b][1,4]thiazin-6-yl)-3-(1H-indol-6-yl)urea]: at least 6.00.
